Converted amounts (≈) assume the structure as drawn. The source made the active and inactive calls. No cut-off for these calls is given here.
Tests used:
Escherichia coli [1] = test: Antimicrobial activity against Escherichia coli JW55031 harboring deltatolC mutant after 18 to 20 hrs in aerobic condition by CLSI protocol based broth microdilution assay; format: functional
Staphylococcus aureus [2] = test: Antibacterial activity against Methicillin-sensitive Staphylococcus aureus NRS107 clinical isolates after 18 to 20 hrs in aerobic condition by CLSI protocol based broth microdilution assay; format: functional
Staphylococcus aureus [3] = test: Antibacterial activity against linezolid-resistant/Methicillin-resistant Staphylococcus aureus NRS119 clinical isolates after 18 to 20 hrs in aerobic condition by CLSI protocol based broth microdilution assay; format: functional
Staphylococcus aureus [4] = test: Antibacterial activity against Methicillin-resistant Staphylococcus aureus NRS123-USA400 clinical isolates after 18 to 20 hrs in aerobic condition by CLSI protocol based broth microdilution assay; format: functional
Staphylococcus aureus [5] = test: Antibacterial activity against Methicillin-resistant Staphylococcus aureus NRS385-USA500 clinical isolates after 18 to 20 hrs in aerobic condition by CLSI protocol based broth microdilution assay; format: functional
Staphylococcus aureus [6] = test: Antibacterial activity against vancomycin-resistant Staphylococcus aureus isolate 12 after 18 to 20 hrs in aerobic condition by CLSI-based broth microdilution assay; format: functional
Staphylococcus aureus [7] = test: Bactericidal activity against methicillin-resistant Staphylococcus aureus NRS123-USA400 clinical isolates at 5 times MIC incubated over 24 hrs followed by replating on tryptic soy agar plate and further incubated for 18 to 20 hrs by time kill assay; format: functional, organism-based
[8] = tested on: Staphylococcus epidermidis; test: Antibacterial activity against Staphylococcus epidermidis NRS101 after 18 to 20 hrs in aerobic condition by CLSI-based broth microdilution assay; format: functional
Enterococcus faecium = test: Antibacterial activity against vancomycin-resistant Enterococcus faecium ATCC 700221 clinical isolates after 18 to 20 hrs in aerobic condition by CLSI-based broth microdilution assay; format: functional
Streptococcus pneumoniae = test: Antibacterial activity against cephalosporin-resistant Streptococcus pneumoniae ATCC 51916 clinical isolates after 18 to 20 hrs by CLSI-based broth microdilution assay; format: functional
Clostridioides difficile = test: Antibacterial activity against Clostridium difficile ATCC BAA 1870 incubated for 48 hrs in anaerobic condition by CLSI-based broth microdilution assay; format: functional; details: ATCC BAA 1870, 48 h
Acinetobacter baumannii [9] = test: Antibacterial activity against Acinetobacter baumannii ATCC 19606 clinical isolates after 18 to 20 hrs in aerobic condition by CLSI-based broth microdilution assay; format: functional; details: ATCC 19606 = CIP 70.34 = JCM 6841
Acinetobacter baumannii [10] = test: Antibacterial activity against Acinetobacter baumannii ATCC BAA 1141 clinical isolates after 18 to 20 hrs in aerobic condition by CLSI-based broth microdilution assay; format: functional
Escherichia coli [11] = test: Antibacterial activity against Escherichia coli ATCC 25922 clinical isolates after 18 to 20 hrs in aerobic condition by CLSI-based broth microdilution assay; format: functional
Escherichia coli [12] = test: Antibacterial activity against Escherichia coli ATCC 35150 clinical isolates after 18 to 20 hrs in aerobic condition by CLSI-based broth microdilution assay; format: functional
[13] = Antibacterial activity against Enterobacter cloacae subsp. cloacae ATCC BAA-1143 clinical isolates after 18 to 20 hrs in aerobic condition by CLSI-based broth microdilution assay; format: functional
Klebsiella pneumoniae [14] = test: Antibacterial activity against Klebsiella pneumoniae BAA-1706 clinical isolates after 18 to 20 hrs in aerobic condition by CLSI-based broth microdilution assay; format: functional
Salmonella enterica [15] = test: Antibacterial activity against Salmonella enterica NR-170 clinical isolates after 18 to 20 hrs in aerobic condition by CLSI-based broth microdilution assay; format: functional
Salmonella enteritidis [16] = test: Antibacterial activity against Salmonella enteritidis ATCC 13076 clinical isolates after 18 to 20 hrs in aerobic condition by CLSI-based broth microdilution assay; format: functional, Salmonella enterica subsp. enterica serovar Enteritidis; details: Salmonella enterica
Salmonella enteritidis [17] = test: Antibacterial activity against Salmonella enteritidis ATCC 14028 clinical isolates after 18 to 20 hrs in aerobic condition by CLSI-based broth microdilution assay; format: functional, Salmonella enterica subsp. enterica serovar Enteritidis; details: Salmonella enterica
Escherichia coli [18] = test: Antibacterial activity against carbapenem-resistant Escherichia coli BAA-2469 clinical isolates after 18 to 20 hrs in aerobic condition by CLSI-based broth microdilution assay; format: functional
Klebsiella pneumoniae [19] = test: Antibacterial activity against carbapenem-resistant Klebsiella pneumoniae ATCC BAA-2146 clinical isolates after 18 to 20 hrs in aerobic condition by CLSI-based broth microdilution assay; format: functional
Acinetobacter baumannii [20] = test: Antibacterial activity against carbapenem-resistant Acinetobacter baumannii ATCC BAA 1605 clinical isolates after 18 to 20 hrs in aerobic condition by CLSI-based broth microdilution assay; format: functional
Pseudomonas aeruginosa [21] = test: Antibacterial activity against carbapenem-resistant Pseudomonas aeruginosa ATCC 1744 clinical isolates after 18 to 20 hrs in aerobic condition by CLSI-based broth microdilution assay; format: functional
Escherichia coli [22] = test: Inhibition of 6His tagged Escherichia coli UPPP expressed in Escherichia coli C41(DE3) cells preincubated for 15 mins followed by FPP substrate addition and measured after 20 mins by malachite green reagent based assay
Staphylococcus aureus [23] = test: Ratio of MBC to MIC for Methicillin-sensitive Staphylococcus aureus ATCC 6538 clinical isolates; format: functional
Listeria monocytogenes = test: Ratio of MBC to MIC for Listeria monocytogenes ATCC 19111 clinical isolates; format: functional
Acinetobacter baumannii [24] = test: Ratio of MBC to MIC for Acinetobacter baumannii ATCC 19606 clinical isolates; format: functional, ATCC 19606 = CIP 70.34 = JCM 6841
Acinetobacter baumannii [25] = test: Ratio of MBC to MIC for Acinetobacter baumannii ATCC BAA 1747 clinical isolates; format: functional
Acinetobacter baumannii [26] = test: Ratio of MBC to MIC for Acinetobacter baumannii NR 17785 clinical isolates; format: functional
Acinetobacter baumannii [27] = test: Ratio of MBC to MIC for Acinetobacter baumannii NR 17786 clinical isolates; format: functional
Escherichia coli [28] = test: Ratio of MBC to MIC for Escherichia coli ATCC 35150 clinical isolates; format: functional
Escherichia coli [29] = test: Ratio of MBC to MIC for Escherichia coli ATCC 1411 clinical isolates; format: functional
Klebsiella pneumoniae [30] = test: Ratio of MBC to MIC for Klebsiella pneumoniae BAA-1706 after 18 to 20 hrs in aerobic condition by CLSI-based broth microdilution assay; format: functional
Salmonella enterica [31] = test: Ratio of MBC to MIC for Salmonella enterica NR-170 clinical isolates; format: functional
Salmonella typhimurium = test: Ratio of MBC to MIC for Salmonella typhimurium ATCC 700720 clinical isolates; format: functional, Salmonella enterica subsp. enterica serovar Typhimurium
Shigella flexneri = test: Ratio of MBC to MIC for Shigella flexneri ATCC 9199 clinical isolates; format: functional
Pseudomonas aeruginosa [32] = test: Ratio of MBC to MIC for Pseudomonas aeruginosa ATCC 9027 clinical isolates; format: functional
Pseudomonas aeruginosa [33] = test: Ratio of MBC to MIC for Pseudomonas aeruginosa ATCC 25619 clinical isolates; format: functional
Pseudomonas aeruginosa [34] = test: Ratio of MBC to MIC for Pseudomonas aeruginosa ATCC 15442 clinical isolates; format: functional
Escherichia coli [35] = test: microbe, parasite or virus in culture; details: ATCC 1411
Description: Antibacterial activity against Escherichia coli ATCC 1411 clinical isolates after 18 to 20 hrs in aerobic condition by CLSI-based broth microdilution assay

Pseudomonas aeruginosa [36] = test: microbe, parasite or virus in culture; details: ATCC 9027
Description: Antibacterial activity against Pseudomonas aeruginosa ATCC 9027 clinical isolates after 18 to 20 hrs in aerobic condition by CLSI-based broth microdilution assay

Pseudomonas aeruginosa [37] = test: microbe, parasite or virus in culture; details: ATCC 25619
Description: Antibacterial activity against Pseudomonas aeruginosa ATCC 25619 clinical isolates after 18 to 20 hrs in aerobic condition by CLSI-based broth microdilution assay

`CCCC#Cc1ccc(-n2ncc(/C(C)=N/NC(=N)N)c2C)cc1` showed an MIC (Escherichia coli [1]) of 4 µg/mL (≈ 12.4 µM), an MIC (Staphylococcus aureus [2]) of 4 µg/mL (≈ 12.4 µM) and an MIC (Staphylococcus aureus [3]) of 2 µg/mL (≈ 6.2 µM). It also gave an MIC (Staphylococcus aureus [4]) of 2 µg/mL (≈ 6.2 µM), an MIC (Staphylococcus aureus [5]) of 2 µg/mL (≈ 6.2 µM) and an MIC (Staphylococcus aureus [6]) of 2 µg/mL (≈ 6.2 µM). For the same molecule, the Activity (Staphylococcus aureus [7]) was “Active”, the MIC [8] was 4 µg/mL (≈ 12.4 µM) and the MIC (Enterococcus faecium) was 4 µg/mL (≈ 12.4 µM). For the same molecule, the MIC (Streptococcus pneumoniae) was 4 µg/mL (≈ 12.4 µM), the MIC (Clostridioides difficile) was 8 µg/mL (≈ 24.8 µM) and the MIC (Acinetobacter baumannii [9]) was 8 µg/mL (≈ 24.8 µM). The MIC (Acinetobacter baumannii [10]) was 8 µg/mL (≈ 24.8 µM), the MIC (Escherichia coli [11]) was 8 µg/mL (≈ 24.8 µM) and the MIC (Escherichia coli [12]) was 8 µg/mL (≈ 24.8 µM). It also gave an MIC [13] of 16 µg/mL (≈ 49.6 µM), an MIC (Klebsiella pneumoniae [14]) of 8 µg/mL (≈ 24.8 µM) and an MIC (Salmonella enterica [15]) of 16 µg/mL (≈ 49.6 µM). The MIC (Salmonella enteritidis [16]) was 16 µg/mL (≈ 49.6 µM), the MIC (Salmonella enteritidis [17]) was 16 µg/mL (≈ 49.6 µM) and the MIC (Escherichia coli [18]) was 32 µg/mL (≈ 99.3 µM). The MIC (Klebsiella pneumoniae [19]) was 32 µg/mL (≈ 99.3 µM), the MIC (Acinetobacter baumannii [20]) was 16 µg/mL (≈ 49.6 µM) and the MIC (Pseudomonas aeruginosa [21]) was 32 µg/mL (≈ 99.3 µM). For the same molecule, the inhibition (Escherichia coli [22]) was “inactive”, the Ratio (Staphylococcus aureus [23]) was “<=2” and the Ratio (Listeria monocytogenes) was less than 3. The Ratio (Acinetobacter baumannii [24]) was “>=1”, the Ratio (Acinetobacter baumannii [25]) was “>=1” and the Ratio (Acinetobacter baumannii [26]) was “>=1”. The Ratio (Acinetobacter baumannii [27]) was “>=1”, the Ratio (Escherichia coli [28]) was “>=1” and the Ratio (Escherichia coli [29]) was “>=1”. For the same molecule, the Ratio (Klebsiella pneumoniae [30]) was “>=1”, the Ratio (Salmonella enterica [31]) was “>=1” and the Ratio (Salmonella typhimurium) was “>=1”. For the same molecule, the Ratio (Shigella flexneri) was “>=1”, the Ratio (Pseudomonas aeruginosa [32]) was “>=1” and the Ratio (Pseudomonas aeruginosa [33]) was “>=1”. For the same molecule, the Ratio (Pseudomonas aeruginosa [34]) was “>=1”, the MIC (Escherichia coli [35]) was 16 µg/mL (≈ 49.6 µM) and the MIC (Pseudomonas aeruginosa [36]) was 32 µg/mL (≈ 99.3 µM). For the same molecule, the MIC (Pseudomonas aeruginosa [37]) was 16 µg/mL (≈ 49.6 µM).

Source: ChEMBL document CHEMBL4334464, “From Phenylthiazoles to Phenylpyrazoles: Broadening the Antibacterial Spectrum toward Carbapenem-Resistant Bacteria” (J Med Chem, 2019)
